Assay results reported in patent US9623012B2, “Formulation comprising benzothiazolone compound” (priority 2013, dated 2017).
Counter-ions that a name gives are not always drawn.

Assays:
human 5-HT2C receptor = target: T1, human 5-HT2C receptor (Homo sapiens, UniProt P28335); test: 3H-Mesulergine binding to hr5-HT2C CHO cell membranes; settings: 3H-Mesulergine 1 nM, kind of constant not given
T1 construct: purchased Biosignal Packard, USA; host or cells: CHO cell membranes
T1 sequence (P28335 33-458): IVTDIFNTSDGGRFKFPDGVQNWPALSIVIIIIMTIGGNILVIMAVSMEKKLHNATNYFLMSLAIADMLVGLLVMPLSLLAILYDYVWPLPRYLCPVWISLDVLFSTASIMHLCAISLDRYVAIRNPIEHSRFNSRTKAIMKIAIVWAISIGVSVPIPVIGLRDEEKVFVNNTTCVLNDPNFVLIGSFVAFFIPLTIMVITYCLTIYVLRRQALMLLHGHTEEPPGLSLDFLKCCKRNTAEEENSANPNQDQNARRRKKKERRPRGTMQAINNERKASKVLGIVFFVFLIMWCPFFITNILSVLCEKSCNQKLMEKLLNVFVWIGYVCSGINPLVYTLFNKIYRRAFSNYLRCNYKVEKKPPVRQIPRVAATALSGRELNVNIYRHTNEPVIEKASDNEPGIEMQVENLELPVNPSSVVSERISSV
Method: Non-specific binding is evaluated in the presence of 1 μM Mesulergine. Fifty μL each of membrane, ligand and compound in a total volume of […] are incubated in 96-well plates for 60 min at 22° C. in a buffer containing 50 mM Tris, 0.1% ascorbic acid, 10 μM Pargyline, pH 7.7. The plates are filtrated, washed 3 times in ice-cold 50 mM Tris, dried and measured in Topcount.

[1] = target: T2, Serotonin 5-HT2C receptor (Homo sapiens, UniProt P28335); test: Aequorin agonist assay in CHO-K1 cells expressing Serotonin 5-HT2C; assay type: cell-based; settings: aequorin luminescence, agonist mode
T2 construct: expressed in transfected cells; host or cells: CHO-K1 cells coexpressing mitochondrial apoaequorin and Gα16
T2 sequence (P28335 33-458): T1 sequence (P28335 33-458)
Method: CHO-K1 cells coexpressing mitochondrial apoaequorin, recombinant Serotonin 5-HT2Cne and the promiscuous G protein Gα16, grown to mid-log phase in culture media without antibiotics were detached with PBS-EDTA, centrifuged and resuspended in assay buffer (DMEM/HAM's F12 with HEPES, without phenol red+0.1% BSA protease free) at a concentration of 1×10^6 cells/ml. Cells were incubated at room temperature for at least 4 h with coelenterazine h. […] For agonist testing, 50 μL of cell suspension were mixed with 50 μL of test or reference agonist in a 96-well plate. The resulting emission of light is recorded using Hamamatsu Functional Drug Screening System 6000 (FDSS 6000) luminometer. Agonist activity of test compound was expressed as a percentage of the activity of the reference agonist at its EC100 concentration.

[2] = target: human β2 adrenoceptor (β2 AR) (Homo sapiens, UniProt P07550); test: cAMP response in CHO cells stably transfected with human β2 adrenoceptor (Test 1)
Chain of human β2 adrenoceptor (β2 AR) (P07550 whole entry): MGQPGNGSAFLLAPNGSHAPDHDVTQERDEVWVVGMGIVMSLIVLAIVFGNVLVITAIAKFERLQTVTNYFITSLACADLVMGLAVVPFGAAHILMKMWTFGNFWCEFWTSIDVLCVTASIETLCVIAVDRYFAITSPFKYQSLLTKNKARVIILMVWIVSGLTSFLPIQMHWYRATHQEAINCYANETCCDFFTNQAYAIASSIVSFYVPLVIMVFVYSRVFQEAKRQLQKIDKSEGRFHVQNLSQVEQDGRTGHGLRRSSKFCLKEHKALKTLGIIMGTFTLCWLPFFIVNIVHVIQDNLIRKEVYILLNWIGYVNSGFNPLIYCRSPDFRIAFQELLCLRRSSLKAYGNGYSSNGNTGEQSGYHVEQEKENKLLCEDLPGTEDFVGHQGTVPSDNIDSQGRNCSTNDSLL

[3] = target: human β1 adrenoceptor (β1 AR) (Homo sapiens, UniProt P08588); test: cAMP response in CHO cells stably transfected with human β1 adrenoceptor (Test 1)
Chain of human β1 adrenoceptor (β1 AR) (P08588 whole entry): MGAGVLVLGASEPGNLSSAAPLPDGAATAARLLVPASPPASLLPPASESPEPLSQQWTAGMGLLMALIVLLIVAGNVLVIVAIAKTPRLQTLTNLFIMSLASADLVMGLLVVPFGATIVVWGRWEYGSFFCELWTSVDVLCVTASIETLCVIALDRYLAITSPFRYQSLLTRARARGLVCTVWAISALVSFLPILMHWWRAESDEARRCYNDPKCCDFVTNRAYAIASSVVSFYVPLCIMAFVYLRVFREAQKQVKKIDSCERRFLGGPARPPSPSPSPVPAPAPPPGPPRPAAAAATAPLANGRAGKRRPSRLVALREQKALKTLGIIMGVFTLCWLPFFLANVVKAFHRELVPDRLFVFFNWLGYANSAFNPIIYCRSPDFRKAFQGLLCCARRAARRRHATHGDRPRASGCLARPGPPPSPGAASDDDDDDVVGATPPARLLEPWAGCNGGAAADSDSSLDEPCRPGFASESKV

[4] = Comparative solubility in H2O with pH adjustment; assay type: physicochemical
Method: The relative solubilities of the free base form and the acetate and glycolate salt forms of Compound A were analysed and the results are show in the table below. Solutions were titrated with addition of HCl or NaOH for pH adjustment. The improved aqueous solubilities of the acetate and glycolate salt forms relative to the free base form of Compound A make the acetate and glycolate salts of Compound A more suitable for subcutaneous injection or infusion.

Male Wistar Han IGS rats = assay type: in vivo; settings: rat, s.c. minipump 4 weeks; formoterol 0.003-0.03, Compound A 0.01-0.1 mg/kg/day
Method: Male Wistar Han IGS (International Genetic Standard) rats (Crl:WI(Han)) at the weight of 350-400 g were purchased from Charles River Laboratories. Rats were acclimated to the facility for 7 days. Animals were housed in groups of 3 animals at 25° C. with a 12:12 h light-dark cycle. They were fed a standard laboratory diet containing 18.2% protein and 3.0% fat with an energy content of 15.8 MJ/kg (NAFAG 3890, Kliba, Basel, Switzerland). Food and water were provided ad libitum. […] Pumps were filled with the solution and kept for several hours at 37° C. in PBS until surgical implantation. Rats were treated subcutaneously with Temgesic at a dose of 0.02 mg/kg with a volume of 1 ml/kg at least 30 minutes before surgery, and then the pumps filled with the solution indicated above were implanted subcutaneously into the back of the rats under anesthesia with isoflurane at a concentration of 3%. Temgesic was administered subcutaneously to the rats 24 h and 48 h after the surgery. Body weights were measured twice per week. Clips were removed 10 days after the surgery under anesthesia. Four weeks after the treatment, the rats were euthanized with CO2, and the tibialis anterior, gastrocnemius and soleus muscles, heart and brain were dissected and weighed. Brain weight was used for normalization of organ weights. Results are expressed as mean +/−SEM. […]

[5] = tested on: left atria from Dunkin Hartley Guinea pig; test: Left atrium contraction assay (Ricerca, Adrenergic beta1)
Wistar Han rats = test: Heart rate in vivo in rats after s.c. bolus; settings: rat, s.c. bolus up to 0.3 mg/kg
Excerpt: Wistar Han (W-H) IGS (International Genetic Standard) rats (Crl:WI(Han)) were purchased from Charles River Laboratories. Femoral arterial and venous catheters were chronically implanted and exteriorized through a spring tether-swivel system and housed in specialized cages. Arterial catheter was connected to a pressure transducer to continuously measure pulse pressure, mean arterial pressure and heart rate, which was derived from the blood pressure signal, via a digital data acquisition system. Compounds were administered via s.c catheter implanted through the skin buttun. Values are expressed as means±SEM (n=3).

Rhesus monkeys = test: Heart rate in vivo in rhesus monkeys after s.c. bolus; settings: rhesus monkey, s.c. bolus up to 0.03 mg/kg
Method: Rhesus monkeys, 24 females with body weight around 4 to 8 kg, were randomized into 4 groups of n=6. The animals were restrained on a chair up to 4 hours after single subcutaneous administration of compounds, and then returned to their pens. Heart rates were measured using a Surgivet V3304 device. Values are expressed as means±SEM (n=6).

[6] = target: T3, human adrenergic Alpha1A (α1A AR) (Homo sapiens, UniProt P35348); test: Ca2+ FLIPR assay in human adrenergic Alpha1A CHO-K1 cell line (Test 1); assay type: cell-based; settings: read-out: CHO cells EC50 α1A AR
T3 sequence (P35348 1-466): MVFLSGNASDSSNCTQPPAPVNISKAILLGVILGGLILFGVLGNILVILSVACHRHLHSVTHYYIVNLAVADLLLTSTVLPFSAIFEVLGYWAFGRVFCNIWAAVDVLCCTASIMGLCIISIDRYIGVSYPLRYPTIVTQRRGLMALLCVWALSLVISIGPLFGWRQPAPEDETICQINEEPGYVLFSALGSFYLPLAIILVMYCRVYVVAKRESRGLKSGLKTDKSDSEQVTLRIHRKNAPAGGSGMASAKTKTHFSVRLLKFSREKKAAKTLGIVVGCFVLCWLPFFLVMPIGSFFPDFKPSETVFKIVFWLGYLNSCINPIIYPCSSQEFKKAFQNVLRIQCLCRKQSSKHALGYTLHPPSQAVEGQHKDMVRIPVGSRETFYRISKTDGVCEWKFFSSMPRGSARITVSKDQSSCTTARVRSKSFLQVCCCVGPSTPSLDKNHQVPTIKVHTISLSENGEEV
Method: Compounds acting as agonists induce a transient increase of intracellular calcium. This was recorded on the FLIPR system. A measurement of the signal baseline was first recorded every second for 2 minutes before the injection of the compounds. […] Low controls (unstimulated cells) were determined with the addition of 5 μL of assay buffer.

SMILES: CCCCOc1ccc(CC(C)(C)NCC(O)c2cc(O)cc3[nH]c(=O)sc23)cc1 (racemic) [Compound A/B]
- Serotonin 5-HT2C Binding (human 5-HT2C receptor): 1.7 µM
- EC50 [1]: 0.025 µM
- EC50 [2]: 0.011 µM
- EC50 [3]: 0.684 µM

SMILES: CCCCOc1ccc(CC(C)(C)NC[C@H](O)c2cc(O)cc3[nH]c(=O)sc23)cc1 [Compound A (R) acetate salt, (R)-7-(2-(1-(4-butoxyphenyl)-2-methylpropan-2-ylamino)-1-hydroxyethyl)-5-hydroxybenzo[d]thiazol-2(3H)-one acetate salt]
- Emax ([2]; CHO, read-out: CHO cells Emax % β2 AR, cAMP, compared to isoprenaline): 91%

SMILES: CCCCOc1ccc(CC(C)(C)NC[C@H](O)c2cc(O)cc3[nH]c(=O)sc23)cc1.O=C(O)CO [Compound A glycolate salt]
- solubility in H2O, Conc ([4]; pH 5.1): 13.1 mg/mL
- solubility in H2O, Conc ([4]; pH 5.3): 6.39 mg/mL
- solubility in H2O, Conc ([4]; pH 5.4): 4.47 mg/mL

SMILES: CCCCOc1ccc(CC(C)(C)NC[C@H](O)c2cc(O)cc3[nH]c(=O)sc23)cc1 [Compound A, (R)-7-(2-(1-(4-butoxyphenyl)-2-methylpropan-2-ylamino)-1-hydroxyethyl)-5-hydroxybenzo[d]thiazol-2(3H)-one]
- solubility in H2O, Conc ([4]; pH 7.3): <0.01 mg/mL
- solubility in H2O, Conc ([4]; pH 7.8): <0.01 mg/mL
- skeletal muscle mass and heart mass increase (FIG. 1) (Male Wistar Han IGS rats): induces skeletal muscle hypertrophy with minimum impact on heart mass
- EC50 ([5]; Cavia porcellus, guinea pig left atria, n = 2): > 10 µM
- effects on left atrium contraction ([5]; up to 10 μM): no effects
- heart rate increase (Wistar Han rats): less heart rate increases compared to formoterol
- heart rate increase (Rhesus monkeys): less heart rate increase compared to formoterol
- Serotonin 5-HT2C Binding (human 5-HT2C receptor): 11 µM

SMILES: CCCCOc1ccc(CC(C)(C)NC[C@@H](O)c2cc(O)cc3[nH]c(=O)sc23)cc1 [Compound B (S)]
- EC50 [6]: > 30 µM
- Serotonin 5-HT2C Binding (human 5-HT2C receptor): 0.8 µM
- EC50 [1]: 0.0197 µM
- EC50 [2]: 0.95 µM
- EC50 [3]: > 10 µM
